Legend:
[1] = test system: cancer tissue-derived cell mass (sample C45, human colon cancer); experiment: in vitro drug sensitivity test with cancer tissue-derived cell mass, normal versus dormant state; assay type: cell-based; conditions: day 7, 5-FU and oxaliplatin 0.01-10 μg/ml, SN38 0.001-1 ng/ml, FIG. 6; for response of cancer tissue-derived cell mass to drug concentration (relative increase rate of area, no drug = 1): dormant state (dormancy medium); for proliferation of cancer cells in the cancer tissue-derived cell mass (relative increase rate of area, no drug = 1): normal culture conditions (StemPro hESC SFM medium)
Experimental: Using SN38,5-FU, and oxaliplatin known as anti-cancer agents, a drug sensitivity test was performed with C45 sample of Example 2. The test was proceeded by culturing the C45 obtained in example 2, in 1 cc of a dormancy medium or StemPro hESC SFM (Gibco; A10007-01) medium. Further, as to each drug, 5-FU and oxaliplatin were applied at concentrations of 0.01 μg/ml, 0.1 μg/ml, 1 μg/ml, and 10 μg/ml, and SN38 was applied at concentrations of 0.001 ng/ml, 0.01 ng/ml, 0.1 ng/ml, and 1 ng/ml, and comparative evaluation of the culture state was performed on day 7 after each culture. An increase rate of the area of the cancer tissue-derived cell mass was relatively expressed when the increase rate of the area under culture with no drug application was expressed as 1.

[2] = test system: cancer tissue-derived cell mass (sample C45, human colon cancer); experiment: effect of growth factors on proliferation of cancer tissue-derived cell mass under 1% oxygen; assay type: cell-based; conditions: added to dormancy medium under hypoxic conditions (1% oxygen); heregulin 10 ng/ml, IGF 200 ng/ml, or both; FIG. 4
Experimental: The cancer tissue-derived cell mass obtained in Example 2 was purified as a composition and cultured in a dormancy medium (20 ml): DMEM/F12 with GlutaMAX (Invitrogen) 18.5 ml, 25% BSA (Invitrogen) 1.44 ml, and 2ME Stock […] in a 6 cm non-treated dish (EIKEN CHEMICAL: AG2000) in a personal gas incubator (APM-30D, ASTEC Co., Ltd.) or INVIVO2 400 (RUSKINN) for 15 days at 37° C. under the conditions of an oxygen concentration of 1%.

| Molecule | response of cancer tissue-derived cell mass to drug concentration (relative increase rate of area, no drug = 1) [1] | proliferation of cancer cells in the cancer tissue-derived cell mass (relative increase rate of area, no drug = 1) [1] | growth of the cancer tissue-derived cell mass [2] |
| --- | --- | --- | --- |
| O=c1[nH]cc(F)c(=O)[nH]1 [5-FU] | did not respond to the concentration of drugs at all or responded little to it | suppressed |  |
| CCc1c2c(nc3ccc(O)cc13)-c1cc3c(c(=O)n1C2)COC(=O)[C@]3(O)CC [SN38] | did not respond to the concentration of drugs at all or responded little to it | suppressed |  |
| O=C1[O][Pt]2([NH][C@@H]3CCCC[C@H]3[NH]2)[O]C1=O [oxaliplatin] | did not respond to the concentration of drugs at all or responded little to it | suppressed |  |
| heregulin |  |  | grew up rapidly |
| insulin-like growth factor [IGF] |  |  | grew up rapidly |
